Results reported in patent US11517550B2 (priority 2008, dated 2022).

Tested on: Clostridium perfringens ATCC 13124
Type: cell-based
Settings: brain heart infusion broth, pH 6.0, 30° C., 0% oxygen

Row | Substance | MIC values (%)
1 | C10 lactylate | 0.04
2 | C8 lactylate | 0.05
3 | C12 lactylate | 0.002
4 | C14 lactylate | 0.001
5 | C16 lactylate | 0.002
6 | C18:1 lactylate | 0.02
